Source: patent US6270979A (priority 1998, dated 2001)
Entries after “also recorded” stand apart in the source; their conditions may differ. Counter-ions that a name gives are not always drawn. Like-named read-outs stand apart in the source and are kept apart here.

Key:
opioid μ receptor [1] = biological target: opioid μ receptor (Homo sapiens, UniProt P35372); type: cell-based
μ opioid receptor [2] = biological target: T1, μ opioid receptor (Rattus norvegicus, UniProt P33535); settings: added acutely, μ and EEμ receptor transfected HEK293 cells
μ opioid receptor [3] = biological target: T1, μ opioid receptor; experiment: Receptor recycling through endocytic vesicles; type: cell-based; set-up: expressed in transfected cells
[4] = biological target: epitope-tagged μ opioid receptor (EE-μR) (Rattus norvegicus, UniProt P33535); type: cell-based
Male ICR mice = settings: mouse, in vivo
PKC = settings: known; cited from earlier work
PKA = settings: known; cited from earlier work
opioid μ receptor [5] = type: cell-based, human
Mice = type: in vivo
cAMP phosphodiesterase = settings: generally recognized; Beavo et al.; cited from earlier work
[6] = system: muscarinic m1 receptor mutant m1-E360A; type: cell-based
[7] = system: D2 receptor (long splice isoform); experiment: D2 receptor cAMP assay in stably transfected HEK293 cells; type: cell-based; settings: for negative antagonism at D2 receptor: preliminary, stably transfected HEK293 cells, quinpirole as agonist
opioid μ receptor [8] = settings: prior knowledge; cited from earlier work

epitope-tagged μ opioid receptor (EE-μR), sequence (P33535 whole entry): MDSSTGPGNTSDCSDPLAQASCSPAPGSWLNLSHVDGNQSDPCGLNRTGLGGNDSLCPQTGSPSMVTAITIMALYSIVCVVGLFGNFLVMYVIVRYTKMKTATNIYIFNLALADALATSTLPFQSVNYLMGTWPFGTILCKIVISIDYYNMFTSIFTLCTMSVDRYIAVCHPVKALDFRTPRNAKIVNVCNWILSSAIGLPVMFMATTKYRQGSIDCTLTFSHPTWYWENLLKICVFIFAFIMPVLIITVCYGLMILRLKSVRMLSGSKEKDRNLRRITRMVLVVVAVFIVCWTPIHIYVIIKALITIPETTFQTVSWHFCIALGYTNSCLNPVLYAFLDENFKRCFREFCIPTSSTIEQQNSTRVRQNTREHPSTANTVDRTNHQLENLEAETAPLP
opioid μ receptor (Homo sapiens, UniProt P35372), sequence (P35372 whole entry): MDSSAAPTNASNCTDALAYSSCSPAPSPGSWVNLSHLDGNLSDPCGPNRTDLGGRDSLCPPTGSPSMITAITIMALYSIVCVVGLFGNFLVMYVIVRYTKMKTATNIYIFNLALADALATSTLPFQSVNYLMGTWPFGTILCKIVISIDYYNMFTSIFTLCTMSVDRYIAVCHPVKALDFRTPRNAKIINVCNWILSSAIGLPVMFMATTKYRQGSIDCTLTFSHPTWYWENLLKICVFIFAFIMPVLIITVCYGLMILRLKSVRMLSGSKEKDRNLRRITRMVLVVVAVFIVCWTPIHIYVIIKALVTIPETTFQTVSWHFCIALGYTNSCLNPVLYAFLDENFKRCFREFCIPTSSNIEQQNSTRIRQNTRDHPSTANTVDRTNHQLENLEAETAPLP
T1 sequence (P33535 whole entry): as the sequence (P33535 whole entry) above

## CC(C)C[C@@H](NC(=O)[C@H](Cc1ccccc1)NC(=O)CNC(=O)[C@@H](C)NC(=O)[C@@H](N)Cc1ccc(O)cc1)C(=O)O [DADLE]
Opioid μ receptor [1]
  classification of opioid drug (agonist / neutral / negative antagonist): full agonists and are either as effective if not more so than morphine

## C[C@@H](NC(=O)[C@@H](N)Cc1ccc(O)cc1)C(=O)NCC(=O)N(C)[C@@H](Cc1ccccc1)C(=O)NCCO [DAMGO]
μ opioid receptor [2]
  signaling, potency and efficacy relative to morphine: slightly more potent and efficacious than morphine
μ opioid receptor [3]
  receptor recycling through endocytic vesicles: induced massive receptor recycling through endocytic vesicles
[4]
  receptor phosphorylation, potency and efficacy relative to morphine: slightly more potent and efficacious than morphine
Opioid μ receptor [1]
  classification of opioid drug (agonist / neutral / negative antagonist): full agonists and are either as effective if not more so than morphine

## CC1CNCCN1S(=O)(=O)c1cccc2cnccc12.Cl.Cl (centres unmarked) [H7, 1-(5-isoquinolinesulfonyl)-2-methylpiperazine dihydrochloride]
Male ICR mice
  effect on gross behavior of the animals: without affecting gross behavior of the animals
  effect on naloxone induced withdrawal jumping: strongly suppressed the number of naloxone precipitated jumps
PKC
  protein kinase inhibition PKC: known to inhibit several protein kinases including PKA and PKC
[4]; dihydrochloride
  effect on μ receptor (μ*) phosphorylation: strongly inhibits μ receptor phosphorylation; also recorded: inhibited μ* receptor phosphorylation
PKA
  protein kinase inhibition PKA: known to inhibit several protein kinases including PKA and PKC
Opioid μ receptor [5]
  effect on acute depression of cAMP levels by morphine: did not prevent the acute depression of cAMP levels by morphine
  effect on spontaneous cAMP overshoot induced by morphine pretreatment: had some effects on the spontaneous cAMP overshoot
Opioid μ receptor [5]; dihydrochloride
  effect on naloxone cAMP overshoot / formation of μ* when added with morphine pretreatment: abolished the naloxone-induced cAMP overshoot; also recorded: completely prevents the formation of μ* receptors
  reversal of naloxone cAMP overshoot / μ* activity when added after morphine pretreatment: rapidly reverses μ* activity; also recorded: completely reversed the naloxone cAMP overshoot
Mice; mouse, in vivo
  analgesia of second morphine dose, after H7: 90±10%
  effect on morphine antinociception: without affecting gross behavior of the animals or morphine antinociception
Mice; mouse, in vivo, dihydrochloride
  reversal of morphine tolerance: fully reversed morphine tolerance; also recorded: completely reversed tolerance; also recorded: reverse morphine tolerance and dependence in mice

## Cl.Cl.NCCNS(=O)(=O)c1cccc2cnccc12 [H9, N-(2-aminoethyl)-5-isoquinolinesulfonamide dihydrochloride]
Opioid μ receptor [5]
  effect on naloxone cAMP overshoot / formation of μ* when added with morphine pretreatment: capable of preventing formation of the constitutively active μ receptor state

## N=C(N)NCCNS(=O)(=O)c1cccc2cnccc12 [HA-1004, N(2-guanidinoethyl)-5-isoquinolinesulfonamide hydrochloride]
Opioid μ receptor [5]
  effect on naloxone cAMP overshoot / formation of μ* when added with morphine pretreatment: capable of preventing formation of the constitutively active μ receptor state

## CC(C)Cn1c(=O)n(C)c(=O)c2[nH]cnc21 [IBMX, 3-isobutyl-1-methyl-xanthine]
cAMP phosphodiesterase
  cAMP phosphodiesterase inhibition: cAMP phosphodiesterase inhibitor
[4]
  effect on μ receptor (μ*) phosphorylation: suppressed μ receptor phosphorylation as observed for H7; also recorded: μ receptor kinase inhibitor; also recorded: inhibited μ* receptor phosphorylation
Opioid μ receptor [5]
  effect on naloxone cAMP overshoot / formation of μ* when added with morphine pretreatment: suppresses μ* formation; also recorded: capable of preventing formation of the constitutively active μ receptor state

## C=CCN1CC[C@]23c4c5ccc(O)c4O[C@H]2[C@@H](O)C=C[C@H]3[C@H]1C5 [Nalorphine]
Opioid μ receptor [1]
  classification of opioid drug (agonist / neutral / negative antagonist): neutral antagonists
  effect on cAMP levels / constitutive activity in morphine pretreated cells: no significant effect on cAMP levels in dependent cells

## CN1[C@@H]2CC[C@H]1C[C@@H](OC(=O)C(CO)c1ccccc1)C2 (some centres unmarked) [atropine]
[6]
  effect on m1-E360A basal activity: decreasing effects on m1-E360A basal activity

## COC[C@@H]([C@H](O)[C@H](O)C(=O)NCC[C@H](C)c1nc(/C=C/C[C@@H]2O[C@]3(C[C@@H](O)[C@@H]2C)O[C@H]([C@H](C[C@H](O)[C@H](C)[C@H](O)[C@H](C)/C=C(C)/C(C)=C/C=C/C(C)=C\C#N)OC)[C@H](OP(=O)(O)O)C3(C)C)co1)N(C)C [calyculin A]
[6]; HEK293 cells
  effect on m1-E360A basal activity: enhanced the basal activity

## O=C(CCCN1CCC(O)(c2ccc(Cl)cc2)CC1)c1ccc(F)cc1 [haloperidol]
[7]
  negative antagonism at D2 receptor: some degree of negative antagonism

## CN1CC[C@]23c4c5ccc(O)c4O[C@H]2[C@@H](O)C=C[C@H]3[C@H]1C5 [morphine]
Mice; 10 mg/kg morphine sulfate 5 hours after 100 mg/kg, 30 minutes after saline
  analgesia of second morphine dose, saline control: 22±14%

## C=CCN1CC[C@]23c4c5ccc(O)c4O[C@H]2C(=O)CC[C@@]3(O)[C@H]1C5 [naloxone]
Male ICR mice
  reversal of morphine dependence: does not reverse the dependent state in vivo
  withdrawal jumps: 77±20 jumps

## C=C1[C@@H](O)[C@@H]2O[C@]3(CC[C@H](/C=C/[C@@H](C)[C@@H]4CC(C)=C[C@@]5(O[C@H](C[C@@](C)(O)C(=O)O)CC[C@H]5O)O4)O3)CC[C@H]2O[C@@H]1[C@@H](O)C[C@H](C)[C@H]1O[C@@]2(CCCCO2)CC[C@H]1C [okadaic acid]
Opioid μ receptor [5]
  effect of phosphatase inhibitor on enhancing μ*: ineffective in enhancing μ*

## CN1[C@@H]2C[C@@H](OC(=O)[C@H](CO)c3ccccc3)C[C@H]1[C@@H]1O[C@@H]12 [scopolamine]
[6]
  classification at m1-E360A: negative antagonists
  effect on m1-E360A basal activity: decreasing effects on m1-E360A basal activity

## O=C(CCCN1CCC2(CC1)C(=O)NCN2c1ccccc1)c1ccc(F)cc1 [spiperone]
[7]; incubation in absence of agonist, relative to control
  effect on cAMP levels in absence of agonist: decreased cAMP levels relative to control
[7]
  negative antagonism at D2 receptor: some degree of negative antagonism

## CCN1CCCC1CNC(=O)c1cc(S(N)(=O)=O)ccc1OC (centres unmarked) [sulpiride]
[7]
  negative antagonism at D2 receptor: some degree of negative antagonism

## OCCN1CCN(CCCN2c3ccccc3Sc3ccc(C(F)(F)F)cc32)CC1 [thuphenazine]
[7]
  negative antagonism at D2 receptor: some degree of negative antagonism

## CN1CCN(CCCN2c3ccccc3Sc3ccc(C(F)(F)F)cc32)CC1 [trifluoperatine]
[7]
  negative antagonism at D2 receptor: some degree of negative antagonism

## D-Phe-Cys-Tyr-D-Trp-Arg-Thr-Pen-Thr-NH2 [CTOP]
Opioid μ receptor [8]
  blockade of acute effects of morphine (previously known): fully block the acute effects of morphine
Opioid μ receptor [5]
  effect on acute depression of cAMP levels by morphine: block the acute effects of morphine; also recorded: reversed the reduction of the cAMP level caused by morphine
Opioid μ receptor [1]
  classification of opioid drug (agonist / neutral / negative antagonist): neutral (null) antagonist; also recorded: neutral antagonists
  effect on cAMP levels / constitutive activity in morphine pretreated cells: not to reverse the constitutive activity of the μ receptor state; also recorded: does not act as an inverse agonist; also recorded: no effect on the constitutively active μ receptor state; also recorded: do not affect cAMP levels; also recorded: no significant effect on cAMP levels in dependent cells
  effect on naloxone cAMP overshoot when combined with naloxone: block the inverse agonist effects of naloxone; also recorded: Reversal of the naloxone cAMP overshoot

## D-Phe-Cys-Tyr-D-Trp-Arg-Thr-Pen-ThrNH2 [CTAP]
Male ICR mice
  withdrawal jumps: 32±12 jumps
